Laboratory results published in patent publication US8552004B2, “Chemical compounds” (AstraZeneca AB, priority 2010, dated 2013).
Several values for one entry are separate records, joined by “and”; a condition that tells them apart may be missing. Equal entries are not always repeated.

These molecules were tested against ATR (Homo sapiens (Human), UniProt Q13535) (assay: Cellular Assay - ATR, phosphorylation of Chk1 (Ser 345) in HT29 cells after 4NQO (Test (b))). Conditions: cell assay Test (b); pChk1 Ser345 in HT29 cells, 3 μM 4NQO; arithmetic mean.
Assay type: cell-based
Excerpt: ATM and ATR have distinct and overlapping responses to DNA damage. They must participate together and responses must be co-ordinated. Both pathways may be activated by ionising radiation, however only ATR is activated by UV. Since UV treatment is not practical for use in a high throughput cell assay, the UV mimetic 4NQ0 (Sigma) was chosen to activate the ATR DNA damage response pathway.
Chk1, a downstream protein kinase of ATR, plays a key role in DNA damage checkpoint control. Activation of Chk1 involves phosphorylation of Ser317 and Ser345 (regarded as the preferential target for phosphorylation/activation by ATR). […] Compounds dose ranges were created by diluting in 100% DMSO and then further into assay media (EMEM, 10% FCS, 1% glutamine) using a Labcyte Echo Acoustic dispensing instrument. Cells were plated in 384 well Costar plates at 9×10^4 cells per ml in 40 μL EMEM, 10% FCS, 1% glutamine and grown for 24 hrs. Following addition of compound the cells were incubated for 60 minutes. A final concentration of 3 μM 4NQ0 (prepared in 100% DMSO) was then added using the Labcyte Echo and the cells incubated for a further 60mins. The cells are then fixed by adding 40 μL 3.7% v/v formaldehyde solution for 20 minutes. After removal of fix, cells were washed with PBS and permeabilised in 40 μL of PBS containing 0.1% Triton™ X-100. Cells are then washed and 15 μl primary antibody solution (pChk1 Ser345) added and the plates incubated at 4° C. overnight. […] The plates are washed and left in 40 μl PBS. Plates were then read on an ArrayS can Vti instrument to determine staining intensities, and dose responses were obtained and used to determine the IC50 values for the compounds.

Sequence of ATR (Q13535 whole entry): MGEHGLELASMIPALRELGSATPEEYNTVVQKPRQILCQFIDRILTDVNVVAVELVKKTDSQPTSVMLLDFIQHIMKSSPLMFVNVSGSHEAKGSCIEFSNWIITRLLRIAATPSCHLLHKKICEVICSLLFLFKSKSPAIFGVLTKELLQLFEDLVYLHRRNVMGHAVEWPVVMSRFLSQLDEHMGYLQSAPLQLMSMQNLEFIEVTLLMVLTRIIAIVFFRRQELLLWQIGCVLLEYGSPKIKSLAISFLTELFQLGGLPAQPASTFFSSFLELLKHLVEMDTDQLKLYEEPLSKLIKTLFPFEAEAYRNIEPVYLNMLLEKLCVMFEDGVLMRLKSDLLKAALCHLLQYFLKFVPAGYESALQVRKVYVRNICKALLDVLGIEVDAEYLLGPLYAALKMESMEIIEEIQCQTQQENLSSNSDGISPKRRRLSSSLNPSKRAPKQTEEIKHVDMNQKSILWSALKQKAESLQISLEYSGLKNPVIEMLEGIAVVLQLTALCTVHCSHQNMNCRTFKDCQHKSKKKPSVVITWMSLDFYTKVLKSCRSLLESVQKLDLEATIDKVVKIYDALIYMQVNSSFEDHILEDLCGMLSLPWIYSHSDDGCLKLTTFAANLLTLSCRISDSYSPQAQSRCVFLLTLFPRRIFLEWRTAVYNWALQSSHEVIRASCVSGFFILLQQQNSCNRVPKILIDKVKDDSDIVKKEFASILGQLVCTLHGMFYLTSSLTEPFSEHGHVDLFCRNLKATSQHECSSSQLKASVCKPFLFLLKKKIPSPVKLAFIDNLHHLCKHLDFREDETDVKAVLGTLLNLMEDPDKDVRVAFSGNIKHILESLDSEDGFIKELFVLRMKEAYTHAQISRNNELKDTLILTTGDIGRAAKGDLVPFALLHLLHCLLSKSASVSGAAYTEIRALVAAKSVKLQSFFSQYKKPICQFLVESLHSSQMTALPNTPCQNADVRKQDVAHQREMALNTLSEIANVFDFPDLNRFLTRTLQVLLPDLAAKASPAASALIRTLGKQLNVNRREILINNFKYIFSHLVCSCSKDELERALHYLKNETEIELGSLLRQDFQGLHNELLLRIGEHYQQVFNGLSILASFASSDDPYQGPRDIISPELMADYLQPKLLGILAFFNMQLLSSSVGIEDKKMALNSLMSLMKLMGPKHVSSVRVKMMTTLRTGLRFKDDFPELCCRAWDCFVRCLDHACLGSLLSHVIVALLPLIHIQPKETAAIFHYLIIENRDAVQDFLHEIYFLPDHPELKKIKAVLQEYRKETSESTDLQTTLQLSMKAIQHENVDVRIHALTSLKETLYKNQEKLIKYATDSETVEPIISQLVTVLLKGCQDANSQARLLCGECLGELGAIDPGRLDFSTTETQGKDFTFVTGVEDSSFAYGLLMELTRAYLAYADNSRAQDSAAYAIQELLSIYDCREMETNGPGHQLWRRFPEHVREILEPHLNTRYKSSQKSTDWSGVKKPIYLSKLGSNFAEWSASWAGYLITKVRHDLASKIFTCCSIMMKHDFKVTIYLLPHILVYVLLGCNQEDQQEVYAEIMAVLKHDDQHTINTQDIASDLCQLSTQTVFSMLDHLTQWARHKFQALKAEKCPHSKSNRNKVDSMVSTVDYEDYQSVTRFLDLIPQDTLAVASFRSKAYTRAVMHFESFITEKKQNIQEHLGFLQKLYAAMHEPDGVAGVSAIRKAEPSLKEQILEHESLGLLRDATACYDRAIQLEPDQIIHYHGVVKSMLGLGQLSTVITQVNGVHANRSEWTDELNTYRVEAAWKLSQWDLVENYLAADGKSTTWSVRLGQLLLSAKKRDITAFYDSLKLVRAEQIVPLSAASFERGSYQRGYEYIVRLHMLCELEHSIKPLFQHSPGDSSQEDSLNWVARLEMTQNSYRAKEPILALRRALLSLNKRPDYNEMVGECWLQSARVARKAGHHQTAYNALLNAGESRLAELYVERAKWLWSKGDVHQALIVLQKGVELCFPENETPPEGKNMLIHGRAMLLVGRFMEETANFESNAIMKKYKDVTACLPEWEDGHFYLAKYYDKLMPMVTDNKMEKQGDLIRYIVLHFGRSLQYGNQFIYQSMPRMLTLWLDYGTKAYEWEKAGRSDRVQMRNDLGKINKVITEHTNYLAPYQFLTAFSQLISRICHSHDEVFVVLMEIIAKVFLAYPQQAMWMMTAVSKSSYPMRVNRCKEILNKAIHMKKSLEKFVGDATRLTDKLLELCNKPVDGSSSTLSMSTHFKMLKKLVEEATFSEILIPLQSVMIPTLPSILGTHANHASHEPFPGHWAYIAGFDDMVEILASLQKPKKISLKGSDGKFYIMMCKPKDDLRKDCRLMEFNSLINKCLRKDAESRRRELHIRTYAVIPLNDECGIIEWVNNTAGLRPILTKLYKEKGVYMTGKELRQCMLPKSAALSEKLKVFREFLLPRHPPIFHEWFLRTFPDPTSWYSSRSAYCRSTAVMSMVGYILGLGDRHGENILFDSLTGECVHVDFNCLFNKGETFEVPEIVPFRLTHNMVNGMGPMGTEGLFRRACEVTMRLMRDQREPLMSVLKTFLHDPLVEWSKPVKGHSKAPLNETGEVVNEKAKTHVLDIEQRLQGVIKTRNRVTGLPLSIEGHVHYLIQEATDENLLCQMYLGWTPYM
Sequence of ATR (Q8WXE1 whole entry partner): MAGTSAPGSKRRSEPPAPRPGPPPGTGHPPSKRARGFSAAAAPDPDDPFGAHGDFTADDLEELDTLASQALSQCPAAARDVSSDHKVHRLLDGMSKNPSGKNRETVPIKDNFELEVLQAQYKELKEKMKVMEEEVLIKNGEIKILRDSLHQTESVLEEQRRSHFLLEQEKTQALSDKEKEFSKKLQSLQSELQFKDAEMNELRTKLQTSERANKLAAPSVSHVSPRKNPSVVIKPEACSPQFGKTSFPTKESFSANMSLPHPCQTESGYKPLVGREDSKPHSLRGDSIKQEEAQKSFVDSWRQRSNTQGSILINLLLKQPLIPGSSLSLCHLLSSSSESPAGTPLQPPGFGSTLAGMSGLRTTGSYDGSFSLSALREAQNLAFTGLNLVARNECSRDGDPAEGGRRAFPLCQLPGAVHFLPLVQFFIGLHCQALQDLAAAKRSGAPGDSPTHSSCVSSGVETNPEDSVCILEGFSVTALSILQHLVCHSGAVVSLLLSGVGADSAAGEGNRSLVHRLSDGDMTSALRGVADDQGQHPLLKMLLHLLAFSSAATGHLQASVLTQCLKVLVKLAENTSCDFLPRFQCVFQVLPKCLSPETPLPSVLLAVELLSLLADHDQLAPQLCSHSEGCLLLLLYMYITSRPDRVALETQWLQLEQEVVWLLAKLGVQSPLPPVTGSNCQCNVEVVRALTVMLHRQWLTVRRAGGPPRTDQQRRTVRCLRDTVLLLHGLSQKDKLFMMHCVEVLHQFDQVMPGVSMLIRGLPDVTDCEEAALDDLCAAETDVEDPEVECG

IC50 [nM]	Compound
75.8	C[C@@H]1COCCN1c1cc(C2([S@](C)(=N)=O)CC2)nc(-c2cccc3[nH]ccc23)n1 [Example 2.05, 4-{4-[(3R)-3-Methylmorpholin-4-yl]-6-[1-((R)—S-methylsulfonimidoyl)cyclopropyl]pyrimidin-2-yl}-1H-indole]
12.9	C[C@@H]1COCCN1c1cc(C2([S@@](C)(=N)=O)CC2)nc(-c2cccc3[nH]ccc23)n1 [Example 2.06, 4-{4-[(3R)-3-methylmorpholin-4-yl]-6-[1-((S)—S-methylsulfonimidoyl)cyclopropyl]pyrimidin-2-yl}-1H-indole]
2.58	C[C@@H]1COCCN1c1cc(C2([S@](C)(=N)=O)CC2)nc(-n2c(N)nc3ccccc32)n1 [Example 2.07, 1-{4-[(3R)-3-Methylmorpholin-4-yl]-6-[1-((R)—S-methylsulfonimidoyl)cyclopropyl]pyrimidin-2-yl}-1H-benzimidazol-2-amine]
2.76	C[C@@H]1COCCN1c1cc(C2([S@@](C)(=N)=O)CC2)nc(-n2c(N)nc3ccccc32)n1 [Example 2.08, 1-{4-[(3R)-3-methylmorpholin-4-yl]-6-[1-((S)—S-methylsulfonimidoyl)cyclopropyl]pyrimidin-2-yl}-1H-benzimidazol-2-amine]
159	CNc1nc2c(F)cccc2n1-c1nc(N2CCOC[C@H]2C)cc(C2([S@](C)(=N)=O)CC2)n1 [Example 2.09, 4-Fluoro-N-methyl-1-{4-[(3R)-3-methylmorpholin-4-yl]-6-[1-((R)—S-methylsulfonimidoyl)cyclopropyl]pyrimidin-2-yl}-1H-benzimidazol-2-amine]
109	CNc1nc2c(F)cccc2n1-c1nc(N2CCOC[C@H]2C)cc(C2([S@@](C)(=N)=O)CC2)n1 [Example 2.10, 4-fluoro-N-methyl-{4-[(3R)-3-methylmorpholin-4-yl]-6-[1-((S)—S-methylsulfonimidoyl)cyclopropyl]pyrimidin-2-yl}-1H-benzimidazol-2-amine]
12.8	CNc1nc2ccccc2n1-c1nc(N2CCOC[C@H]2C)cc(C(C)(C)[S@@](C)(=N)=O)n1 [Example 3.01, N-methyl-1-{4-[1-methyl-1-((S)—S-methylsulfonimidoyl)ethyl]-6-[(3R)-3-methylmorpholin-4-yl]pyrimidin-2-yl}-1H-benzimidazol-2-amine]
8.43	CNc1nc2ccccc2n1-c1nc(N2CCOC[C@H]2C)cc(C(C)(C)[S@](C)(=N)=O)n1 [Example 3.02, N-methyl-1-{4-[1-methyl-1-((R)—S-methylsulfonimidoyl)ethyl]-6-[(3R)-3-methylmorpholin-4-yl]pyrimidin-2-yl}-1H-benzimidazol-2-amine]
53.6	CNc1nc2ccccc2n1-c1nc(N2CCOC[C@H]2C)cc(C2([S@@](C)(=N)=O)CCOCC2)n1 [Example 4.01, N-Methyl-1-{4-[(3R)-3-methylmorpholin-4-yl]-6-[4-((S)—S-methylsulfonimidoyl)tetrahydro-2H-pyran-4-yl]pyrimidin-2-yl}-1H-benzimidazol-2-amine]
39.8	CNc1nc2ccccc2n1-c1nc(N2CCOC[C@H]2C)cc(C2([S@](C)(=N)=O)CCOCC2)n1 [Example 4.02, N-methyl-1-{4-[(3R)-3-methylmorpholin-4-yl]-6-[4-((R)—S-methylsulfonimidoyl)tetrahydro-2H-pyran-4-yl]pyrimidin-2-yl}-1H-benzimidazol-2-amine]
51.1	C[C@@H]1COCCN1c1cc(C2([S@@](C)(=N)=O)CCOCC2)nc(-c2cccc3[nH]ccc23)n1 [Example 4.03]
62.5	CNc1nc2c(F)cccc2n1-c1nc(N2CCOC[C@H]2C)cc(C(C)(C)[S@@](C)(=N)=O)n1 [Example 5.01, 4-Fluoro-N-methyl-1-{4-[1-methyl-1-((S)—S-methylsulfonimidoyl)ethyl]-6-[(3R)-3-methylmorpholin-4-yl]pyrimidin-2-yl}-1H-benzimidazol-2-amine]
70.8	CNc1nc2c(F)cccc2n1-c1nc(N2CCOC[C@H]2C)cc(C(C)(C)[S@](C)(=N)=O)n1 [Example 5.02, 4-fluoro-N-methyl-1-{4-[1-methyl-1-((R)—S-methylsulfonimidoyl)ethyl]-6-[(3R)-3-methylmorpholin-4-yl]pyrimidin-2-yl}-1H-benzimidazol-2-amine]
33.1	CNc1nc2ccc(F)cc2n1-c1nc(N2CCOC[C@H]2C)cc(C(C)(C)[S@](C)(=N)=O)n1 [Example 5.03, 6-Fluoro-N-methyl-1-{4-[1-methyl-1-((R)—S-methylsulfonimidoyl)ethyl]-6-[(3R)-3-methylmorpholin-4-yl]pyrimidin-2-yl}-1H-benzimidazol-2-amine]
16.2	CNc1nc2cc(F)ccc2n1-c1nc(N2CCOC[C@H]2C)cc(C(C)(C)[S@](C)(=N)=O)n1 [Example 5.04, 5-Fluoro-N-methyl-1-{4-[1-methyl-1-((R)—S-methylsulfonimidoyl)ethyl]-6-[(3R)-3-methylmorpholin-4-yl]pyrimidin-2-yl}-1H-benzimidazol-2-amine]
18.3	CNc1nc2cc(F)ccc2n1-c1nc(N2CCOC[C@H]2C)cc(C(C)(C)[S@@](C)(=N)=O)n1 [Example 5.05, 5-Fluoro-N-methyl-1-{4-[1-methyl-1-((S)—S-methylsulfonimidoyl)ethyl]-6-[(3R)-3-methylmorpholin-4-yl]pyrimidin-2-yl}-1H-benzimidazol-2-amine]
44.4	CNc1nc2ccc(F)cc2n1-c1nc(N2CCOC[C@H]2C)cc(C(C)(C)[S@@](C)(=N)=O)n1 [Example 5.06, 6-fluoro-N-methyl-1-{4-[1-methyl-1-((S)—S-methylsulfonimidoyl)ethyl]-6-[(3R)-3-methylmorpholin-4-yl]pyrimidin-2-yl}-1H-benzimidazol-2-amine]
29	CNc1nc2ccc(F)cc2n1-c1nc(N2CCOC[C@H]2C)cc(C2([S@](C)(=N)=O)CC2)n1 [Example 5.07, 6-Fluoro-N-methyl-1-{4-[(3R)-3-methylmorpholin-4-yl]-6-[1-((R)—S-methylsulfonimidoyl)cyclopropyl]pyrimidin-2-yl}-1H-benzimidazol-2-amine]
10.1	CNc1nc2cc(F)ccc2n1-c1nc(N2CCOC[C@H]2C)cc(C2([S@](C)(=N)=O)CC2)n1 [Example 5.08, 5-fluoro-N-methyl-1-{4-[(3R)-3-methylmorpholin-4-yl]-6-[1-((R)—S-methylsulfonimidoyl)cyclopropyl]pyrimidin-2-yl}-1H-benzimidazol-2-amine]
18	CNc1nc2cc(F)ccc2n1-c1nc(N2CCOC[C@H]2C)cc(C2([S@@](C)(=N)=O)CC2)n1 [Example 5.09, 5-fluoro-N-methyl-1-{4-[(3R)-3-methylmorpholin-4-yl]-6-[1-((S)—S-methylsulfonimidoyl)cyclopropyl]pyrimidin-2-yl}-1H-benzimidazol-2-amine]
47	CNc1nc2ccc(F)cc2n1-c1nc(N2CCOC[C@H]2C)cc(C2([S@@](C)(=N)=O)CC2)n1 [Example 5.10, 6-fluoro-N-methyl-1-{4-[(3R)-3-methylmorpholin-4-yl]-6-[1-((S)—S-methylsulfonimidoyl)cyclopropyl]pyrimidin-2-yl}-1H-benzimidazol-2-amine]

Each molecule was assayed on HT29 cells (assay: Cellular SRB assay, potentiation of carboplatin (Test (c))). Conditions: HT29 cell growth, Carboplatin alone, 5 days, SRB.
Assay type: cell-based, human
Protocol: (c) Cellular—SRB Assay The potentiation factor (PF50) for compounds is a measure of the fold increase in effect of a chemotherapeutic agent, when used in combination with an ATR inhibitor. Specifically, this is calculated as a ratio of the IC50 of control cell growth in the presence of a chemotherapeutic agent, typically carboplatin, divided by the IC50 of cell growth in the presence of this agent and the ATR inhibitor of interest. For this purpose, HT29 cells were seeded at the appropriate density to ensure exponential growth throughout the time of the assay (typically 1000-1500 cells) in each well of a 96-well plate, in a volume of 80 μl and incubated overnight at 37° C. Subsequently, cells were dosed with either DMSO vehicle, or treated with test compounds at fixed concentrations (typically 1, 0.3 & 0.1 μM). Following a one hour incubation at 37° C., the cells were further treated with a 10 point dose response of the chemotherapeutic agent, based on it's known sensitivity (typically 30-0.001 ug/ml for carboplatin). Cells were left to grow for 5 days at 37° C., after which time cell growth was assessed using the sulforhodamine B (SRB) assay (Skehan, P et al, 1990 New colorimetric cytotoxic assay for anticancer-drug screening. J. Natl. Cancer Inst. 82, 1107-1112.). Specifically, the media was removed and cells fixed with 100 μl of ice cold 10% (w/v) trichloroacetic acid. The plates were then incubated at 4° C. for 20 minutes prior to washing 4 times with water. Each well was then stained with 100 μL of 0.4% (w/v) SRB in 1% acetic acid for 20 minutes before a further 4 washes with 1% acetic acid. Plates were then dried for 2 hours at room temperature and the dye was solubilized by the addition of 100 μL Tris Base pH 8.5 into each well. Plates were shaken before measuring optical density at 564 nm (OD564). In order to calculate the PF50, the OD564 values obtained for the dose-response curve of chemotherapeutic agent were expressed as a percentage of the value obtained from cells treated with vehicle alone. Similarly, to act as a control for inclusion of the ATR inhibitor, values from the chemotherapeutic agent tested in combination with a fixed ATR inhibitor concentration were expressed as a percentage of the value obtained from cells treated with the corresponding concentration of ATR inhibitor alone. From these internally-controlled curves, IC50 values were calculated and the PF50 was determined as the ratio of these values, as described above. Compounds are compared using the PF50 value at concentrations of ATR inhibitor that show minimal growth inhibition on their own. IC50 values were calculated with XLfit (IDBS, Surrey UK) using the dose response, 4 parameter logistic model #203. Top (max) and bottom (min) curve fitting was free and not locked to 100% to 0% respectively.

Compound	IC50
N.N.O=C([O-])C1(C(=O)[O-])CCC1.[Pt+2] [Carboplatin, reference compound]	12.519 µg/mL and 11.798 µg/mL
